The text below walks through data of ChEMBL document CHEMBL2073824, “Mechanism of the pharmacokinetic interaction between methotrexate and benzimidazoles: potential role for breast cancer resistance protein in clinical drug-drug interactions” (Cancer Res, 2004).

Data set [1] has as its target T1, Broad substrate specificity ATP-binding cassette transporter ABCG2 (Homo sapiens, UniProt Q9UNQ0).
T1 sequence (Q9UNQ0 whole entry): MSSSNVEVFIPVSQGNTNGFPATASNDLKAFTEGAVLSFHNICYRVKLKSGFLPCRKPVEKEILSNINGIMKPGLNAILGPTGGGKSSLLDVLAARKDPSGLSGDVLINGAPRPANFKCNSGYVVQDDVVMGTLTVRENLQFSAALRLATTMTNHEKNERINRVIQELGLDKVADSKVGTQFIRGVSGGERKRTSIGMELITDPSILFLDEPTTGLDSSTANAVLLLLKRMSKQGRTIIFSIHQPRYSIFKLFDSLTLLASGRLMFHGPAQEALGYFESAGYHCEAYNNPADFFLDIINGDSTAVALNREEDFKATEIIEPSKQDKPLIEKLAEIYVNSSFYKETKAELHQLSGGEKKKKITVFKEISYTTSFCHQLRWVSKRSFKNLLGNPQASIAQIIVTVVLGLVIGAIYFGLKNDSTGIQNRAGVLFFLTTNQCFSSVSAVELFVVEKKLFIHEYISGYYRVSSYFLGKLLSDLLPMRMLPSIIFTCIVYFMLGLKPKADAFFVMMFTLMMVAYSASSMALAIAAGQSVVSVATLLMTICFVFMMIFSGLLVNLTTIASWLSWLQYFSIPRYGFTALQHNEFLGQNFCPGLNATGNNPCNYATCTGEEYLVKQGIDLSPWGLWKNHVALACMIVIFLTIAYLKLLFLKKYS
Nature of the data set: TP_TRANSPORTER: inhibition of MTX uptake in membrane vesicle from BCRP-expressing Sf9 cell. In kind it is functional, cell membranes.

In data set [2] the target is T2, Broad substrate specificity ATP-binding cassette transporter ABCG2 (Mus musculus, UniProt Q7TMS5).
T2 sequence (Q7TMS5 whole entry): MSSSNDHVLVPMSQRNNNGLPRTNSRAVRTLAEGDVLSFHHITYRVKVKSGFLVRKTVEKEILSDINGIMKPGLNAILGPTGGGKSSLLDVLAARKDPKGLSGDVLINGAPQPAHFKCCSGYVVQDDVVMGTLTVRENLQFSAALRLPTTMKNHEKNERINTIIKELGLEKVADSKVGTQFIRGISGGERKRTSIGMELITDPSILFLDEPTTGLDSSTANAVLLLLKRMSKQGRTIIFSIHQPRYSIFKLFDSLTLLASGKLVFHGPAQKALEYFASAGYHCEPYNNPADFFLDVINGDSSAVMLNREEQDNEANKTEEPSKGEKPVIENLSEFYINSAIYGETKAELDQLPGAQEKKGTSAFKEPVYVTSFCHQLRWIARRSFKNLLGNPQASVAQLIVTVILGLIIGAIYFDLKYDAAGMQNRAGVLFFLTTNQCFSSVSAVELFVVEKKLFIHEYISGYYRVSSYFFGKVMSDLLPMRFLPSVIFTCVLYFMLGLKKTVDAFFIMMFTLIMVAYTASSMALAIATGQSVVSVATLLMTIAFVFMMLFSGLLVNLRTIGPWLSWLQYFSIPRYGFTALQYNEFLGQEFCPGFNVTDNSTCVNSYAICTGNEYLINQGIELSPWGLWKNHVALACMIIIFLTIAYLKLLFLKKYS
In words: TP_TRANSPORTER: transepithelial transport in Bcrp-expressing MDCKII cells. The conditions noted are these: dog, mdck-ii. In kind it is functional, cell-based.

Data set [3] deals with T1, Broad substrate specificity ATP-binding cassette transporter ABCG2. Nature of the data set: TP_TRANSPORTER: uptake in membrane vesicle from BCRP-expressing Sf9 cells. It is filed as functional, cell membranes.

The IC50 is the concentration that gives 50% inhibition.

On to `COc1ccnc(C[S+]([O-])c2nc3ccc(OC(F)F)cc3[nH]2)c1OC` (stereo not given) [PANTOPRAZOLE], for which, in data set [1] (read-out: IC50), the IC50 came to 10 µM. Further, the Km result in data set [2] was “substrate [Km=0.1-0.2mM]”.
Regarding `CC[C@@]1(O)C(=O)OCc2c1cc1n(c2=O)Cc2cc3c(CN(C)C)c(O)ccc3nc2-1` [TOPOTECAN], the Activity entry in data set [2] was “substrate []”.
For the compound `COc1ccc2[nH]c([S+]([O-])Cc3ncc(C)c(OC)c3C)nc2c1` (stereo not given) [OMEPRAZOLE], the IC50 result in data set [1] (sf9) is “inhibitor [IC50=10-50uM]”.
Regarding `CN(Cc1cnc2nc(N)nc(N)c2n1)c1ccc(C(=O)N[C@@H](CCC(=O)O)C(=O)O)cc1` [METHOTREXATE], in data set [3], the Activity result was “substrate []”.
